Reference: ChEMBL document CHEMBL3797130, “Development of novel proteasome inhibitors based on phthalazinone scaffold” (Bioorg Med Chem Lett, 2016)
pIC50: −log10 of the molar value. Calls of active or inactive are those of the source. No cut-off for these calls is given here.

Assays:
[1] = target: T1, Proteasome Macropain subunit MB1 (Homo sapiens, UniProt P28074); test: Inhibition of chymotrypsin-like activity of 20S human proteasome assessed as […] at using Promega proteasome-Glo-3 substrate incubated for 15 mins by luminescence assay
T1 sequence (P28074 whole entry): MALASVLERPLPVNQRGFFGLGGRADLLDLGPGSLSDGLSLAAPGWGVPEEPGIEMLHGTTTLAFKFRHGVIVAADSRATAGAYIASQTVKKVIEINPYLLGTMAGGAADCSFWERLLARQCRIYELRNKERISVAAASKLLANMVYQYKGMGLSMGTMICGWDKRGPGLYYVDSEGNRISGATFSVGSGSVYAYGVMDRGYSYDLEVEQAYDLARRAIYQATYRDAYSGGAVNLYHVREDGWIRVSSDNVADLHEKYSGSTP

[2] = target: T2, Proteasome Macropain subunit MB1 (Homo sapiens) (UniProt P28074); test: Inhibition of chymotrypsin-like activity of 20S human proteasome assessed as […] at 25 ug/ml using Promega proteasome-Glo-3 substrate incubated for 15 mins by luminescence assay
T2 sequence (whole entry): T1 sequence (P28074 whole entry)

SMILES	pIC50 [1]	inhibition [2]
CCCn1nc(-c2ccc(OCCCC[P+](c3ccccc3)(c3ccccc3)c3ccccc3)cc2)c2ccccc2c1=O	–	12.1%
CCN(CC)c1ccc(-n2nc(-c3ccc(OCCCC[P+](c4ccccc4)(c4ccccc4)c4ccccc4)cc3)c3ccccc3c2=O)cc1	4.99	99.1%
CCN(CC)c1ccc(-n2nc(-c3ccc(OCCCCP(c4ccccc4)c4ccccc4)cc3)c3ccccc3c2=O)cc1	–	19.6%
CCN(CC)c1ccc(-n2nc(-c3ccc(OCCCC[n+]4ccn(C)c4)cc3)c3ccccc3c2=O)cc1	–	5.8%
O=c1c2ccccc2c(-c2ccc(OCCCC[P+](c3ccccc3)(c3ccccc3)c3ccccc3)cc2)nn1-c1ccc2ccccc2c1	4.86	98.7%
O=c1c2ccccc2c(-c2ccc(OCCCC[P+](c3ccccc3)(c3ccccc3)c3ccccc3)cc2)nn1-c1cccs1	4.75	93.2%
CCn1nc(-c2ccc(OCCCC[P+](c3ccccc3)(c3ccccc3)c3ccccc3)cc2)c2ccccc2c1=O	–	inactive
CCN(CC)c1ccc(-n2nc(-c3ccc(OCCCCBr)cc3)c3ccccc3c2=O)cc1	–	inactive
O=c1c2ccccc2c(-c2ccc(OCCCC[P+](c3ccccc3)(c3ccccc3)c3ccccc3)cc2)nn1-c1ccccc1	5.01	99.5%
O=c1c2ccccc2c(-c2ccc(OCCCC[P+](c3ccccc3)(c3ccccc3)c3ccccc3)cc2)nn1Cc1ccccc1	4.93	80.9%
CNc1ccc(-n2nc(-c3ccc(OCCCC[P+](c4ccccc4)(c4ccccc4)c4ccccc4)cc3)c3ccccc3c2=O)cc1	4.85	94.3%
Cn1nc(-c2ccc(OCCCC[P+](c3ccccc3)(c3ccccc3)c3ccccc3)cc2)c2ccccc2c1=O	–	inactive
CCN(CC)c1ccc(-n2nc(-c3ccc(OCCCCN4CCCC4)cc3)c3ccccc3c2=O)cc1	–	13.2%

Continued, values first:

pIC50 [1]	inhibition [2]	SMILES
4.87	98.5%	CCN(CC)c1ccc(-n2nc(-c3ccc(OCCCC[P+](C4CCCCC4)(C4CCCCC4)C4CCCCC4)cc3)c3ccccc3c2=O)cc1
–	8.6%	CCN(CC)c1ccc(-n2nc(-c3ccc(OCCCC[n+]4ccccc4)cc3)c3ccccc3c2=O)cc1
4.64	48.2%	O=c1c2ccccc2c(-c2ccc(OCCCC[P+](c3ccccc3)(c3ccccc3)c3ccccc3)cc2)nn1CC1CC1
–	5.1%	CCN(CC)c1ccc(-n2nc(-c3ccc(OCCCCN4CCOCC4)cc3)c3ccccc3c2=O)cc1
–	8%	CCN(CC)c1ccc(-n2nc(-c3ccc(OCCCCN4CCCCC4)cc3)c3ccccc3c2=O)cc1
4.79	84.9%	O=c1c2ccccc2c(-c2ccc(OCCCC[P+](c3ccccc3)(c3ccccc3)c3ccccc3)cc2)nn1CC1CCCCC1
–	35.8%	CCCCn1nc(-c2ccc(OCCCC[P+](c3ccccc3)(c3ccccc3)c3ccccc3)cc2)c2ccccc2c1=O
–	10.3%	CCN(CC)c1ccc(-n2nc(-c3ccc(OCCCC[N+](CC)(CC)CC)cc3)c3ccccc3c2=O)cc1
4.58	52.4%	CC(C)Cn1nc(-c2ccc(OCCCC[P+](c3ccccc3)(c3ccccc3)c3ccccc3)cc2)c2ccccc2c1=O
4.67	70.5%	O=c1c2ccccc2c(-c2ccc(OCCCC[P+](c3ccccc3)(c3ccccc3)c3ccccc3)cc2)nn1CC1CCC1
